This is an account of results in paper PMC2435557, “Developing and applying a gene functional association network for anti-angiogenic kinase inhibitor activity assessment in an angiogenesis co-culture model” (BMC Genomics, 2008).

“Also recorded” adds a separate entry of the source.

Assay [1] relates to HUVEC cord formation in co-culture with NHDF. The assay is described as follows: HUVEC/NHDF cord formation co-culture assay (in vitro angiogenesis, high content imaging). The class given is cell-based, human. To be noted: for EC50: Homo sapiens, cord area normalized to control group, mean of two to four independent experiments, sigmoidal dose-response fit, read-out: observed EC50 of cord formation inhibition (cord area). Here is the method: In vitro HUVEC cord formation co-culture was performed using the AngioKit commercially available from TCScellworks (Buckingham, UK) adapted to a 24-well format. To test HUVEC and NHDF passage dependence effects, the co-culture was done in house adapted to a 96-well format. Briefly, HUVEC cells were co-cultured onto human dermal fibroblast feeder layers in Optimised medium (TCScellworks, Buckingham, UK) for a total of about 12 days. Treatment started the day when the plates were received; usually three to four days after initial plating. Medium with or without growth factors or compounds was replenished every 2 to 3 days. Cells were fixed with 70% cold ethanol at the end of the culture and processed for anti-CD31/Alexa 488 immunofluorescence. To visualize feeder layer fibroblasts, some cultures were stained using a polyclonal antibody against Vimentin (Abcam, Cambridge, Massachusetts) along with an Alexa 568 conjugated secondary antibody to examine the feeder cell integrity. Nuclear staining was performed using Hoechst staining (Invitrogen Molecular Probe, Carlsbad, California).
Immunofluorescence stained co-culture plates were scanned using ArrayScan VTI (Cellomics, Pittsburgh, Pennsylvania) and the multi-parameter tube formation Bioapplication was used for quantification. Morphological measurements included cord length, width, area, percent connected cord, branching node and segment count, nuclei per cord, angiogenic index (expressed as the percentage of area covered by connected tube), etc. General cytotoxicity was monitored by examination of the nuclear staining of the feed layers.

On the set-up of assay [2]: method as in PMID 15919970. To be noted: cited from earlier work.

Take `O=C(Cc1ccc(-c2cnc3cc(-c4ccncc4)ccn23)cc1)Nc1cccc(C(F)(F)F)c1` [LY2401401]: in assay [1], the EC50 came out at 9.2 nM.
Regarding `Clc1ccc(Nc2nnc(Cc3ccncc3)c3ccccc23)cc1` [PTK787], the “outcome in clinical trials” value in assay [2] was “failed to achieve statistical significance”. Besides, the EC50 in assay [1] amounted to 140 nM.
Turning to `CCN(CC)CCNC(=O)c1c(C)[nH]c(/C=C2\C(=O)Nc3ccc(F)cc32)c1C` [Sunitinib], in assay [1] (30 nM), the “effect on cord mass in length and area” value was “significantly inhibited”; the “number of connected cords, branching nodes, and segment measurements” value was “all significantly reduced”; the “number of nuclei per tube” value is on record as “significantly reduced”. In assay [1] (30 nM compound, compared to medium control), the “effect on angiogenesis / cord formation” value was “significantly inhibited angiogenesis; also recorded: drastically inhibited cord formation”. Further, the EC50 in assay [1] worked out at 39 nM.
Regarding VEGF, the “effect on angiogenesis / cord formation” value in assay [1] (20 ng/ml VEGF added to culture) is “significantly increased angiogenesis; also recorded: greatly enhanced”.
